Results: patent US20260262643A1, “HERBICIDAL BENZOXAZINES” (FMC CORPORATION, priority 2022, published 2026)

Key:
[1] = test system: barnyardgrass; test: Test C preemergence; format: in vivo, Echinochloa crusgalli; details: 0 to 100 scale (0 no effect, 100 complete control)
In short: (§1)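 Test material, in non-phytotoxic solvent with surfactant, was sprayed on the soil directly after seeding (preemergence) or on young plants of 2–10 cm with one to two leaves (postemergence). Greenhouse, 10 days; 0–100 visual control scale.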

[2] = test system: blackgrass; test: Test C preemergence; format: in vivo, Alopecurus myosuroides; details: 0 to 100 scale (0 no effect, 100 complete control)
In short: as §1

[3] = test system: corn; test: Test C preemergence; format: in vivo, Zea mays; details: 0 to 100 scale (0 no effect, 100 complete control)
In short: as §1

[4] = test system: green foxtail; test: Test C preemergence; format: in vivo, Setaria viridis; details: 0 to 100 scale (0 no effect, 100 complete control)
In short: as §1

[5] = test system: kochia; test: Test C preemergence; format: in vivo, Bassia scoparia; details: 0 to 100 scale (0 no effect, 100 complete control)
In short: as §1

[6] = test system: oat, wild; test: Test C preemergence; format: in vivo, Avena fatua; details: 0 to 100 scale (0 no effect, 100 complete control)
In short: as §1

[7] = test system: pigweed, palmer; test: Test C preemergence; format: in vivo, Amaranthus palmeri; details: 0 to 100 scale (0 no effect, 100 complete control)
In short: as §1

[8] = test system: ragweed; test: Test C preemergence; format: in vivo, Ambrosia artemisiifolia; details: 0 to 100 scale (0 no effect, 100 complete control)
In short: as §1

[9] = test system: ryegrass, Italian; test: Test C preemergence; format: in vivo, Lolium multiflorum; details: 0 to 100 scale (0 no effect, 100 complete control)
In short: as §1

[10] = test system: soybean; test: Test C preemergence; format: in vivo, Glycine max; details: 0 to 100 scale (0 no effect, 100 complete control)
In short: as §1

[11] = test system: wheat; test: Test C preemergence; format: in vivo, Triticum aestivum; details: 0 to 100 scale (0 no effect, 100 complete control)
In short: as §1

[12] = test system: barnyardgrass; test: Test C postemergence; format: in vivo, Echinochloa crusgalli; details: 10 days
In short: as §1

[13] = test system: blackgrass; test: Test C postemergence; format: in vivo, Alopecurus myosuroides; details: 10 days
In short: as §1

[14] = test system: corn; test: Test C postemergence; format: in vivo, Zea mays; details: 10 days
In short: as §1

[15] = test system: green foxtail; test: Test C postemergence; format: in vivo, Setaria viridis; details: 10 days
In short: as §1

[16] = test system: kochia; test: Test C postemergence; format: in vivo, Bassia scoparia; details: 10 days
In short: as §1

[17] = test system: oat, wild; test: Test C postemergence; format: in vivo, Avena fatua; details: 10 days
In short: as §1

[18] = test system: pigweed, palmer; test: Test C postemergence; format: in vivo, Amaranthus palmeri; details: 10 days
In short: as §1

[19] = test system: ragweed; test: Test C postemergence; format: in vivo, Ambrosia artemisiifolia; details: 10 days
In short: as §1

[20] = test system: ryegrass, Italian; test: Test C postemergence; format: in vivo, Lolium multiflorum; details: 10 days
In short: as §1

[21] = test system: soybean; test: Test C postemergence; format: in vivo, Glycine max; details: 10 days
In short: as §1

[22] = test system: wheat; test: Test C postemergence; format: in vivo, Triticum aestivum; details: 10 days
In short: as §1

[23] = test system: galium; test: Test C postemergence; format: in vivo, Galium aparine; details: 125 g ai/ha, postemergence, 10 days; 0 to 100 scale, 0 no effect, 100 complete control
In short: as §1

[24] = test system: horseweed; test: Test C postemergence; format: in vivo, Erigeron canadensis; details: 10 days
In short: as §1

[25] = test system: barnyardgrass; test: Test D flooded paddy test; format: in vivo, Echinochloa crus-galli; details: 250 g ai/ha, applied to paddy water, visual rating after 13 to 14 days, scale 0 to 100 (0 no effect, 100 complete control)
In short: (§2)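 At the 2-leaf stage, floodwater 3 cm deep received the test compound; that depth persisted throughout. Plants scored visually 13 to 14 days on, 0 (no effect) to 100 (complete control), dash indicating no result.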

[26] = test system: ducksalad; test: Test D flooded paddy test; format: in vivo, Heteranthera limosa; details: 250 g ai/ha, applied to paddy water, visual rating after 13 to 14 days, scale 0 to 100 (0 no effect, 100 complete control)
In short: as §2

[27] = test system: rice; test: Test D flooded paddy test; format: in vivo, Oryza sativa; details: 250 g ai/ha, applied to paddy water, visual rating after 13 to 14 days, scale 0 to 100 (0 no effect, 100 complete control)
In short: as §2

[28] = test system: sedge, umbrella; test: Test D flooded paddy test; format: in vivo, Cyperus difformis; details: 250 g ai/ha, applied to paddy water, visual rating after 13 to 14 days, scale 0 to 100 (0 no effect, 100 complete control)
In short: as §2

[29] = Preemergence, 500 g ai/ha, visual rating after 10 days
[30] = Test C, preemergence, 125 g ai/ha
[31] = 125 g ai/ha, postemergence, 0 to 100 scale, 0 no effect, 100 complete control
[32] = Postemergence, 500 g ai/ha, visual 0 to 100 scale (0 no effect, 100 complete control)

Structure (SMILES): Cc1cccc2c1O[C@@H](C)CN2C(=O)c1cccc(-n2cnc(C#N)c2)c1 [Compound 233]
- Plant response rating, Barnyardgrass [1, 29]: 60
- Barnyardgrass plant response rating [1, 30]: 0
- Plant response rating, Blackgrass [2, 29]: 30
- Blackgrass plant response rating [2, 30]: 10
- Plant response rating, Corn [3, 29]: 20
- Corn plant response rating [3, 30]: 0
- Plant response rating, Foxtail, Green [4, 29]: 80
- Foxtail, Green plant response rating [4, 30]: 0
- Plant response rating, Kochia [5, 29]: 0
- Kochia plant response rating [5, 30]: 0
- Plant response rating, Oat, Wild [6, 29]: 0
- Oat, Wild plant response rating [6, 30]: 0
- Plant response rating, Pigweed, Palmer [7, 29]: 0
- Pigweed, Palmer plant response rating [7, 30]: 0
- Plant response rating, Ragweed [8, 29]: 70
- Ragweed plant response rating [8, 30]: 0
- Plant response rating, Ryegrass, Italian [9, 29]: 60
- Ryegrass, Italian plant response rating [9, 30]: 10
- Plant response rating, Soybean [10, 29]: 10
- Soybean plant response rating [10, 30]: 0
- Plant response rating, Wheat [11, 29]: 0
- Wheat plant response rating [11, 30]: 0
- Plant response rating, Barnyardgrass [12, 31]: 10
- Plant response rating, Barnyardgrass [12, 32]: 20
- Plant response rating, Blackgrass [13, 31]: 0
- Plant response rating, Blackgrass [13, 32]: 40
- Plant response rating, Corn [14, 31]: 0
- Plant response rating, Corn [14, 32]: 20
- Plant response rating, Foxtail, Green [15, 31]: 20
- Plant response rating, Foxtail, Green [15, 32]: 20
- Plant response rating, Kochia [16, 31]: 0
- Plant response rating, Kochia [16, 32]: 10
- Plant response rating, Oat, Wild [17, 31]: 0
- Plant response rating, Oat, Wild [17, 32]: 20
- Plant response rating, Pigweed, Palmer [18, 31]: 0
- Plant response rating, Pigweed, Palmer [18, 32]: 10
- Plant response rating, Ragweed [19, 31]: 0
- Plant response rating, Ragweed [19, 32]: 20
- Plant response rating, Ryegrass, Italian [20, 31]: 0
- Plant response rating, Ryegrass, Italian [20, 32]: 60
- Plant response rating, Soybean [21, 31]: 70
- Plant response rating, Soybean [21, 32]: 80
- Plant response rating, Wheat [22, 31]: 10
- Plant response rating, Wheat [22, 32]: 10
- Plant response rating, Galium [23]: 50
- Plant response rating, Horseweed [24, 31]: 0
- Plant response rating, Horseweed [24, 32]: 0
- Plant response rating, Barnyardgrass (Flood) [25]: 0
- Plant response rating, Ducksalad (Flood) [26]: 0
- Plant response rating, Rice (Flood) [27]: 0
- Plant response rating, Sedge, Umbrella (Flood) [28]: 0
